Activity calls are given as the source filed them.
Experiments:
[1] = molecular target: T1, Polyadenylate-binding protein 1 (Homo sapiens, UniProt P11940); test: PABP1 MLLE–PAM2 interaction inhibitors, dose response, miRNA deadenylation inhibitor project, biochemical, fluorescence polarization, Cy5-PAM2 peptide, secondary (AID 602260); type: functional; conditions: read-out: IC50_Mean
[2] = molecular target: T1, Polyadenylate-binding protein 1; test: PABP1 MLLE–PAM2 binding inhibitor potency, dose response, biochemical, fluorescence polarization, FITC-PAM2 peptide (AID 602259); type: functional; conditions: read-out: IC50_Mean
[3] = test system: INS1; test: beta cell apoptosis inhibitors, cytokine rescue, dose response, luminescence, retest (AID 449756); type: functional, cell-based; conditions: Rattus norvegicus;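 note: cell death triggered by IL-1 beta plus TNF-alpha plus IFN-gamma mixture; protective hits raise ATP signal compared with cytokine alone wells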
[4] = molecular target: Cytochrome P450 2D6 (Homo sapiens, UniProt P10635);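 note: CYP2D6 member of a cytochrome P450 panel assay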
[5] = cells; type: functional
[6] = molecular target: Cytochrome P450 2C9 (Homo sapiens, UniProt P11712)
[7] = molecular target: Cytochrome P450 2C19 (Homo sapiens, UniProt P33261); test: Cytochrome panel assay with activity outcomes. Panel member name: p450-cyp2c19 Compounds with AC50 equal or less than 10 uM are considered active; type: functional; conditions: read-out: AC50
[8] = inhibitors of clade B AD8 Env fusion, dose response, cell-based, cherry-pick (AID 652062); type: functional;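 note: luciferase signal from cell-cell fusion driven by HIV-1 clade B AD8 Env; potency is for inhibitors of fusion seen as a drop in luminescence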
[9] = molecular target: T2, Corticotropin-releasing factor receptor 2/Corticotropin-releasing factor-binding protein (Homo sapiens, UniProt P24387+Q13324); test: activators of CRF receptor 2 with binding protein – uHTS hits, confirmation (AID 602473); type: functional; conditions: read-out: EC50_Mean
T2 sequence (Q13324 whole entry): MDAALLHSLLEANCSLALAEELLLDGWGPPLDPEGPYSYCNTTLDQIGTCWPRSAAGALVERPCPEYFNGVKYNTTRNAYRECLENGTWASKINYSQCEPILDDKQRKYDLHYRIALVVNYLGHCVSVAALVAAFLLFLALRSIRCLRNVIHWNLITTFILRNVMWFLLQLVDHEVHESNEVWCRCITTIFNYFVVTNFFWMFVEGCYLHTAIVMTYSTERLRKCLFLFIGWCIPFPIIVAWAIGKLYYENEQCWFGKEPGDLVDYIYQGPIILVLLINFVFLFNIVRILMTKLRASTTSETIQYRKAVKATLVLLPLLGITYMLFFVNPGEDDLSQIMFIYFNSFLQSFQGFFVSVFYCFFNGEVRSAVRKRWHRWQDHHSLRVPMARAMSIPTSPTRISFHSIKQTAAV
T2 sequence (P24387 whole entry): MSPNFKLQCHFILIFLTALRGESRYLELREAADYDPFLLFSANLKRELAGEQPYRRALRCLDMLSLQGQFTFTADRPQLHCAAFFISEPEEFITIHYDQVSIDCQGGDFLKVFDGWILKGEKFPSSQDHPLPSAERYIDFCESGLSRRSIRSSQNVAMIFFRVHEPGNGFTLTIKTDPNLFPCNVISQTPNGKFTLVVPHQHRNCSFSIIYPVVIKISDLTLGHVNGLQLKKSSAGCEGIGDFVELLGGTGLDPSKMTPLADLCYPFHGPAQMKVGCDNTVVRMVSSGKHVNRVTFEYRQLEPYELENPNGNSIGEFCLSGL

[10] = molecular target: T2, Corticotropin-releasing factor receptor 2/Corticotropin-releasing factor-binding protein; test: Dose Response confirmation of uHTS hits for small molecule antagonists of the CRF-binding protein and CRF-R2 receptor complex.; type: functional; conditions: read-out: IC50_Mean
[11] = test system: P388; test: cells; type: functional; conditions: Mus musculus
[12] = test system: P388/ADR; test: cells; type: functional; conditions: Mus musculus
[13] = test system: SN12K1; test: cells; type: functional; conditions: Homo sapiens
[14] = cells; type: functional, cell-based
[15] = cells; type: functional, cell-based; remark: listed apart in the source

Cytochrome P450 2D6, sequence (P10635 whole entry): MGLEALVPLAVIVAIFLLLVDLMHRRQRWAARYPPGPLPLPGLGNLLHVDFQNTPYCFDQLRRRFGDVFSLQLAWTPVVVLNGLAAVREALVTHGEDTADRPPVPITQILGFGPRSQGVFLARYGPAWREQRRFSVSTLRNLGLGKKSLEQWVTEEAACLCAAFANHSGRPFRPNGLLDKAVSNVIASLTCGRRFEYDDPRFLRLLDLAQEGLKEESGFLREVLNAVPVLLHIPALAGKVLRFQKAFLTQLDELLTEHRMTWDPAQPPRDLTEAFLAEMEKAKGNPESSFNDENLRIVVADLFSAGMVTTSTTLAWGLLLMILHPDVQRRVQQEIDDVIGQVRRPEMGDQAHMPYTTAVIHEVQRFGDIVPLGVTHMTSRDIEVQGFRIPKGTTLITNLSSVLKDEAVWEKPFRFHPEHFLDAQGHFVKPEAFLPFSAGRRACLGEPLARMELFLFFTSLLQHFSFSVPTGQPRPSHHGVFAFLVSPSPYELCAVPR
T1 sequence (P11940 whole entry): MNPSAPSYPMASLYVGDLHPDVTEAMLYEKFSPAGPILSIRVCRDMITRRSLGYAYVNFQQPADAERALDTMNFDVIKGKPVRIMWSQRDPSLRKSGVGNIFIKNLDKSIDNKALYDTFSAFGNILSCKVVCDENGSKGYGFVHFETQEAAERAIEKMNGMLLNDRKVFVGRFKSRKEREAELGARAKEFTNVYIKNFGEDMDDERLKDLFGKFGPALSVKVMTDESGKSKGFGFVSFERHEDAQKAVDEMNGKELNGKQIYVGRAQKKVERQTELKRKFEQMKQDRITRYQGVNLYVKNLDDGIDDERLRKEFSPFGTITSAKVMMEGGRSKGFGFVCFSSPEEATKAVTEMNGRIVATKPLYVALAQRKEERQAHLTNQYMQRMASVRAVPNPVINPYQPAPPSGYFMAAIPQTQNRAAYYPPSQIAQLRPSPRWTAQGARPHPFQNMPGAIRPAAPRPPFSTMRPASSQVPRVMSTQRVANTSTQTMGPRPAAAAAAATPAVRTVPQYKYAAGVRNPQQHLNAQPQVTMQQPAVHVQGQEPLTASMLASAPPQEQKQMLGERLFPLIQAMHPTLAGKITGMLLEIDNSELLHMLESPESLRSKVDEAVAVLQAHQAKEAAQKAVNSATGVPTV
Cytochrome P450 2C19, sequence (P33261 whole entry, the tested form may be a part): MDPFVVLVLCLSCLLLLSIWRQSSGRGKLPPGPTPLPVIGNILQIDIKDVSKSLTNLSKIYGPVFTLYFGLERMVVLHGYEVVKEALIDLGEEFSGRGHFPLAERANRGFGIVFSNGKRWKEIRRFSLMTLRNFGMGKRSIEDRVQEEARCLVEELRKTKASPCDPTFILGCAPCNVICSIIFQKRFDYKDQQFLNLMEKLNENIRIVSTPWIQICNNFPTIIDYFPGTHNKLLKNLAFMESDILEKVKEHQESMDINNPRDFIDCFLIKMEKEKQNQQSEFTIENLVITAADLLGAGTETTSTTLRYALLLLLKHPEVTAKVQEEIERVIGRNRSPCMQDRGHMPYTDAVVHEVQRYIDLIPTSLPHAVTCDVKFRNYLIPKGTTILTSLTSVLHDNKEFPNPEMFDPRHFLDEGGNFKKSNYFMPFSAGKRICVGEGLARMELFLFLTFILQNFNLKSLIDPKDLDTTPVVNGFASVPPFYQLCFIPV
Cytochrome P450 2C9, sequence (P11712 whole entry): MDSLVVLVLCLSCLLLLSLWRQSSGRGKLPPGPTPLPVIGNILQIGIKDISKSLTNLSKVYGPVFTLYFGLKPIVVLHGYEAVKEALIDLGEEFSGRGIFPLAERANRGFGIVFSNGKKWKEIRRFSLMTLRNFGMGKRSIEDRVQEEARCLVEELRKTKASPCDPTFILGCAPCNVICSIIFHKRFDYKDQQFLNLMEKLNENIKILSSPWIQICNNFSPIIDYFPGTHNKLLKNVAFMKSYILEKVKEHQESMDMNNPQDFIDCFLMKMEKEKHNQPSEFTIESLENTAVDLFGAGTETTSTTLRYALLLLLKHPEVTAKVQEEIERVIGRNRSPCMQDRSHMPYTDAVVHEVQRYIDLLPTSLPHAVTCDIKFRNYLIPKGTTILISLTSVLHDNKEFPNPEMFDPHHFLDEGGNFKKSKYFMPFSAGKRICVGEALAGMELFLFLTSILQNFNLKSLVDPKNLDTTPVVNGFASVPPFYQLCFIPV

SMILES: Oc1c(N=Nc2nn[nH]n2)ccc2ccccc12
- IC50 [1]: > 66 µM (inactive)
- IC50 [2]: 38.9 µM (inactive)

SMILES: CC(=O)c1cccc(NS(=O)(=O)c2ccc(N/C=C\C(=O)c3ccc(F)cc3)cc2)c1
- AC50 [3]: 3.74 µM (active)
- AC50 [4]: 8.91 µM (inconclusive)

SMILES: CN(CC(=O)Nc1ccc(C#N)cc1)Cc1ccc(Cl)c(Cl)c1
- IC50 [5]: 42.3 µM (active)

SMILES: COc1ccccc1NC(=O)c1cnc(SC)nc1
- IC50 [5]: 49.4 µM (active)

SMILES: CCNC(=O)COC(=O)c1ccc(-c2nc3ccccc3s2)s1
- IC50 [5]: 5.44 µM (active)

SMILES: NS(=O)(=O)c1ccc(/N=N\c2cnc(O)c(O)c2)cc1
- AC50 [6]: 6.31 µM (inconclusive)
- AC50 [4]: 5.01 µM (inconclusive)
- AC50 [7]: 6.31 µM (inconclusive)

SMILES: Cc1ccc(S(=O)(=O)N(C)C[C@@H]2Oc3ccc(NS(=O)(=O)c4ccc(Cl)cc4)cc3C(=O)N([C@@H](C)CO)C[C@H]2C)cc1
- AC50 [8]: 3.2 µM (active)

SMILES: O=C(NCCO)c1ccc(Cl)cc1
- AC50 [6]: 5.01 µM (inconclusive)
- AC50 [4]: 2 µM (inconclusive)
- AC50 [7]: 2 µM (inconclusive)

SMILES: CC(=O)Nc1ccc(SC[C@H](Cc2ccccc2)N2CC[C@@H](O)CCC2=O)cc1
- IC50 [1]: > 66 µM (inactive)
- IC50 [2]: > 66 µM (inactive)

SMILES: CC1(Cc2ccc3c(c2)OCO3)NC(=O)NC1=O (stereo unspecified)
- EC50 [9]: > 53 µM (inactive)
- IC50 [10]: > 47.1 µM (inactive)

SMILES: Cc1c2cc[n+](C)c(C)c2cc2c1[nH]c1ccccc12
- GI50 [11]: 4.5 µM (inactive)
- GI50 [12]: > 100 µM (inactive)
- GI50 [13]: 2.21 µM (inactive)

SMILES: CCC(C)(C)c1ccc(OCC(=O)Nc2ccncc2)cc1
- IC50 [5]: 8.95 µM (active)

SMILES: CCCC1(C)Nc2ccccc2-c2nc3ccccc3n21 (stereo unspecified)
- AC50 [4]: 22.4 µM (inconclusive)

SMILES: Cc1ccc(C(=O)Nc2c3c(nn2C(C)(C)C)CS(=O)(=O)C3)cc1C
- EC50 [14]: > 350 µM (not active)
- EC50 [15]: > 350 µM (not active)

SMILES: Cc1cccc2nc3c(C(=O)NCCN(C)C)cccc3cc12
- GI50 [11]: 0.292 µM (active)
- GI50 [12]: 0.474 µM (active)
- GI50 [13]: 0.711 µM (active)

SMILES: O=C(COc1ccc(S(=O)(=O)NC2CCCCC2)cc1Cl)NCc1cccnc1
- EC50 [9]: > 53 µM (inactive)
- IC50 [10]: > 47.1 µM (inactive)

SMILES: Cc1cc([N+](=O)[O-])c2ccccc2c1NS(=O)(=O)c1ccccc1
- EC50 [9]: > 53 µM (inactive)
- IC50 [10]: > 47.1 µM (inactive)

SMILES: COc1ccc(-c2noc(-c3cc4ccccc4oc3=O)n2)cc1
- IC50 [5]: 5.25 µM (active)

SMILES: Cc1c2cc[n+](Cc3ccc(I)cc3)cc2c(C)c2c1[nH]c1ccccc12
- GI50 [11]: 0.1 µM (active)
- GI50 [12]: 17.9 µM (inactive)
- GI50 [13]: 0.208 µM (active)

SMILES: COc1ccc(C2C(C)C(=O)C(C)C(c3ccc(OC)cc3)N2N=O)cc1 (stereo unspecified)
- GI50 [12]: > 100 µM (inactive)
- GI50 [13]: 55.2 µM (inactive)

SMILES: COc1ccc(Cl)cc1C(=O)NNC(=O)COC(=O)c1cccs1
- EC50 [9]: > 53 µM (inactive)
- IC50 [10]: > 47.1 µM (inactive)

SMILES: COc1cccc2c1C(=O)c1c(O)c3c(c(O)c1C2=O)C[C@@](O)(C(C)O)C[C@@H]3OC1CC(N)C(O)C(C)O1 (stereo partly specified)
- GI50 [11]: 0.191 µM (active)
- GI50 [12]: 36.6 µM (inactive)
- GI50 [13]: 0.0891 µM (active)

SMILES: COc1cccc(CN2CCN(c3cccc(C(F)(F)F)c3)CC2)c1OC
- EC50 [9]: > 53 µM (inactive)
- IC50 [10]: > 47.1 µM (inactive)

SMILES: O=C(O)CNS(=O)(=O)c1ccc(NC(=O)Nc2ccccc2)cc1
- GI50 [11]: > 100 µM (inactive)
- GI50 [12]: > 100 µM (inactive)
- GI50 [13]: > 100 µM (inactive)

SMILES: CC(C)C1NC(=O)CC(c2ccccc2)N(N=O)C1c1ccccc1 (stereo unspecified)
- GI50 [11]: 70.1 µM (inactive)
- GI50 [12]: 44.5 µM (inactive)
- GI50 [13]: > 89.9 µM (inactive)

— ChEMBL document CHEMBL1201862, “PubChem BioAssay data set” (2004)
